Results on ten molecules are retold here after patent publication US11013716B2, “Method for providing an increased expression of telomerase, brain-derived neurotrophic factor, stromal cell-derived factor-1, CXC chemokine receptor 4, and/or immune regulatory factor of stem cell” (HAWKING BIOLOGICAL TECHNOLOGY CO., LTD, priority 2013, dated 2021).

For data set [1], the system named is brain-derived neurotrophic factor (BDNF). Put plainly: Gene expression level in ADSCs by RT-PCR: BDNF. The following applies: ADSCs, 10, 20 or 50 μg/ml (especially 20 μg/ml), 12 hours; FIG. 5. The data set is classed as cell-based, human. Here is the method: (§1) Human ADSCs were isolated from human adipose tissue by the following steps. Human adipose tissue from clinical research was washed with equal volumes of phosphate-buffered saline (PBS) and minced with fine scissors. Then, the tissue was digested with 0.075% collagenase type I (Sigma-Aldrich Co., St. Louis, Mo., USA) at 37° C. for 30 to 60 minutes, and a Dulbecco's modified Eagle's medium (DMEM)/F-12 (Invitrogen, Carlsbad, Calif., USA) containing 10% fetal bovine serum (FBS, Invitrogen) was added to terminate the digestion. The digested adipose tissue cells were filtered through a 100 μm nylon mesh to remove the cellular debris. The cell suspension was centrifuged for 10 minutes to obtain a pellet and cultured at 37° C., 5% CO2 in a culture media (DMEM/F-12 containing 10% FBS, 100 U/mL penicillin, and 100 μg/mL streptomycin). Following the incubation, the plates were washed with PBS to remove the residual non-adherent red blood cells. […]
(§2) ADSCs (2×10^5 cells/well) were cultured in a 6 well dish in a 37° C. incubator overnight. […] Thereafter, the gene expression levels of brain-derived neurotrophic factor (BDNF), stromal cell-derived factor-1 (SDF1), C-X-C chemokine receptor type 4 (CXCR4), interleukin 6 (IL-6), and interleukin 8 (IL-8) of the ADSCs were determined by RT-PCR. […]

Data set [2] relates to stromal cell-derived factor-1 (SDF1). Put plainly: Gene expression level in ADSCs by RT-PCR: SDF1. The data set is classed as cell-based, human. Particulars: ADSCs, 10, 20 or 50 μg/ml (especially 20 μg/ml), 12 hours; FIG. 5. As to the method: as §1, §2
For data set [3], the system named is SOD1-G93A transgenic mice. The data set is described as follows: Survival of SOD1-G93A transgenic mice (amyotrophic lateral sclerosis model). The following applies: oral. The format is in vivo. The text has this:
It has been known that about 20% of amyotrophic lateral sclerosis patients were associated with mutations in the gene that encodes Cu/Zn superoxide dismutase enzyme (SOD1), and G93A was the major mutation site.
(§3) This example used the above SOD1-G93A transgenic mice as the object of study to perform in vivo analysis.

The subject of data set [4] is C-X-C chemokine receptor type 4 (CXCR4). The data set is described as follows: Gene expression level in ADSCs by RT-PCR: CXCR4. The data set is classed as cell-based, human. The following applies: ADSCs, 10, 20 or 50 μg/ml (especially 20 μg/ml), 12 hours; FIG. 5. Here is the method: as §1, §2
Data set [5] relates to SOD1-G93A transgenic mice. Put plainly: BBB scale of the hind limbs of SOD1-G93A transgenic mice. The data set is classed as in vivo. The following applies: 500 mg/kg once daily oral; FIG. 3. Here is the method:
as §3
After the mice were treated for 30 days, the hind limbs of the mice were examined by BBB scale (Basso, Beattie, and Bresnahan (BBB) Locomotor Rating Scale). […] BBB scale is used to record the efficiency of the treatments.

The subject of data set [6] is telomerase. Put plainly: Telomerase expression level of ADSCs (Telomerase PCR ELISA kit). Particulars: 100 μM or 250 μM, 24 hours; FIG. 4. The format is cell-based, human. As to the method: as §1
The ADSCs were cultured in a 10 cm dish, and treated with valproic acid (VPA) (1 μM or 10 μM) or BP (comprising Z-BP 95%+E-BP 5%; purchased from ECHO Chemical) (100 μM or 250 μM) at different doses for 24 hours. Then, the telomerase expression level of the ADSCs was determined by a Telomerase PCR ELISA kit (Cat. No. 11854666910, Roche). […]
A general note: An ELISA detects its analyte on a solid surface through an enzyme-linked reagent.

The test system of data set [7] is interleukin 6 (IL-6). Put plainly: Gene expression level in ADSCs by RT-PCR: IL-6. The format is cell-based, human. The following applies: ADSCs, 10, 20 or 50 μg/ml, 12 hours; FIG. 5. As to the method:
as §1, §2

The test system of data set [8] is interleukin 8 (IL-8). The data set is described as follows: Gene expression level in ADSCs by RT-PCR: IL-8. The data set is classed as cell-based, human. The following applies: ADSCs, 10, 20 or 50 μg/ml, 12 hours; FIG. 5. As to the method:
as §1, §2

The nature of data set [9]: Phase I metabolism assay of n-butylidenephthalide, rat hepatic microsomes, LC-MS/MS. The data set is classed as in vitro ADME. The following applies: Rat hepatic microsomes 0.5 mg/mL, BP 2 mM, NADPH, 37° C., 60 minutes. The text has this: (§4) It has been known that the medicine metabolic pathway within an organism's liver can be primarily divided into phase I and phase II metabolism. Phase I metabolism occurs mainly by the redox reaction or hydrolysis reaction of medicine, while phase II metabolism occurs mainly by […]. This example simulated the phase I and II metabolism of butylidenephthalide that occur within an organism's liver by respectively mixing butylidenephthalide with hepatic microsomes or cryopreserved hepatocytes in vitro. The products in the reaction solution were analyzed by liquid chromatograph-tandem mass spectrometer (LC-MS/MS) to identify the metabolites and the metabolic profile. The experimental steps were as follows:
(§5) n-Butylidenephthalide (comprising Z-BP 95%+E-BP 5%; purchased from ECHO Chemical) (2 mM) was mixed respectively with K3PO4 buffer solution (100 mM, pH7.4) containing human, rats or dogs hepatic micrsomes (0.5 mg/mL). The mixture was maintained at 37° C. for 10 minutes, and then pre-warmed cofactors (NADPH (2 mM) and MgCl2 (3 mM)) were added thereto and the mixture was incubated at 37° C. for 60 minutes. Thereafter, 3-fold volume of acetonitrile containing 0.1% formic acid was added to the mixture to terminate the reaction. The mixture was centrifuged at 13000 rpm for 5 minutes. The supernatant was then collected and analyzed by LC-MS/MS to identify the metabolites.
(§6) The samples obtained from (1) and (2) were separately dissolved in acetonitrile/0.1% formic acid, centrifuged at 45000 g, 4° C. for 10 minutes. Then, an aliquot (20 μl) of each sample was injected into an autosampler vial (Agilent Technologies, USA) of a LC-MS/MS system to perform LC-MS/MS analysis. The LC-MS/MS system comprises an ABSCIEX 5500 Q TRAP™ system with 1200SL HPLC system (Agilent Technologies, USA), a HPLC column (Symmetry® C18, 3.5 μM, 4.6×75 mm), and a autosampler (Agilent Technologies, USA). A two-solvent system (solvent A: 0.1% formic acid; solvent B: methanol containing 0.1% formic acid) was used to perform HPLC at a flow rate of 0.8 mL/min. The HPLC gradient system was set as follows: 0 to 2 minutes held at 10% solvent B; 2 to 7 minutes with a gradient from 10% to 95% solvent B; 7 to 12 minutes held at 95% solvent B; 12 to 14 minutes with a gradient from 95% to 10% solvent B; 14 to 20 minutes held at 10% solvent B; and the retention time of HPLC analysis is 20 minutes. The mass spectrometry analysis was performed in positive ion electrospray ionization (+ESI) mode at 5.5 kV, 550° C., and N2 (nitrogen) was used as an auxiliary gas. The most intense peaks in the LC-MS/MS spectrum and the mass-shifted peaks in the LC-MS/MS spectrum of each sample as compared to n-butylidenephthalide spectrum were analyzed by LightSight™ Software to determine the metabolites in the samples and identifying the biotransformation pathway and metabolic profile of n-butylidenephthalide in an organism. The results are shown in Table 1, Table 2, FIG. 1A, FIG. 1B and FIG. 1C.

Data set [10] in a line: Phase I metabolism assay of n-butylidenephthalide, dog hepatic microsomes, LC-MS/MS. The data set is classed as in vitro ADME. Particulars: Dog hepatic microsomes 0.5 mg/mL, BP 2 mM, NADPH, 37° C., 60 minutes.
Description: as §4, §5, §6

Data set [11] is described as follows: Phase I metabolism assay of n-butylidenephthalide, human hepatic microsomes, LC-MS/MS. The data set is classed as in vitro ADME. The following applies: Human hepatic microsomes 0.5 mg/mL, BP 2 mM, NADPH, 37° C., 60 minutes.
Description: as §4, §5, §6

The subject of data set [12] is human hepatocytes. Put plainly: Phase II metabolism assay of n-butylidenephthalide, human hepatocytes, LC-MS/MS. The data set is classed as in vitro ADME. The following applies: Human cryopreserved hepatocytes, BP 50 μM, 37° C., 6 hours.
Description: as §4
(§7) William's E medium containing 5×10^5 thawed human, rat or dog hepatocytes were respectively added into a 12-well culture dish, and the cells were cultured for 6 hours. Then, 0.5 mL of n-butylidenephthalide (comprising Z-BP 95%+E-BP 5%; purchased from ECHO Chemical) (50 μM) was added into the culture dish. After the cells were incubated at 37° C., 95% relative humidity and 5% CO2 for 6 hours, 2 mL of acetonitrile (100%) was added to terminate the reaction. […] The supernatant was then collected, dried, and analyzed by LC-MS/MS to identify the metabolites of n-butylidenephthalide. […]

Data set [13] concerns rat hepatocytes. The data set is described as follows: Phase II metabolism assay of n-butylidenephthalide, rat hepatocytes, LC-MS/MS. The following applies: Rat cryopreserved hepatocytes, BP 50 μM, 37° C., 6 hours. The data set is classed as in vitro ADME.
Description: as §4, §7

For data set [14], the system named is dog hepatocytes. Put plainly: Phase II metabolism assay of n-butylidenephthalide, dog hepatocytes, LC-MS/MS. The format is in vitro ADME. The following applies: Dog cryopreserved hepatocytes, BP 50 μM, 37° C., 6 hours.
Description: as §4, §7

In data set [15] the test system is telomerase. Particulars: previous research; cited from earlier work.
[16] abbreviates: 500 mg/kg-body weight once daily.

On to `CCCC=C1OC(=O)c2ccccc21` [BP, n-butylidenephthalide], for which the “Gene expression level of BDNF” value in data set [1] is “increased”. The “Gene expression level of SDF1” value in data set [2] is listed as “increased”. Moreover, the “Longevity prolonged as compared to the control group” value is “about 91.3±16 days” in [3] (250 mg/kg-body weight twice daily) and “about 22.7±2.8 days” in data set [3] (setting [16]). Besides, in [4], the “Gene expression level of CXCR4” value is “increased”. Moreover, in data set [5], the “Time after which the BBB scale of the hind limbs decreased rapidly” value is over 135 days. In [6], the “Telomerase activity (expression level of telomerase) of ADSCs” value is recorded as “higher telomerase activity”. Further, the “Gene expression level of IL-6” value in data set [7] is on record as “increased”. Besides, the “Gene expression level of IL-8” value in data set [8] is “increased”.

For `C/C=C/C=C1\OC(=O)c2ccccc21` [Compound (2)], the “Biotransformation pathway (Phase I metabolites of n-butylidenephthalide)” value in data set [9], in data set [10] and in [11] was “Dehydrogenation” each time.

For the molecule `CC(O)C/C=C1\OC(=O)c2ccccc21` (stereo not drawn) [Compound (4)], the “Biotransformation pathway (Phase I metabolites of n-butylidenephthalide)” value in data set [9], in data set [10] and in data set [11] was “Oxidation” in each case.

Consider `CCCCC(=O)c1ccccc1C(=O)O` [Compound (5)], for which the “Biotransformation pathway (Phase I metabolites of n-butylidenephthalide)” value in data set [9], in data set [10] and in data set [11] was “Hydrogenation (forming” each time.

For `CCCCC1(O)OC(=O)c2ccccc21` (stereo not drawn) [Compound (7)], the “Biotransformation pathway (Phase I metabolites of n-butylidenephthalide)” value in [9], in data set [10] and in data set [11] was “Hydrogenation (forming” throughout.

For `C=C1OC(=O)c2ccccc21` [Compound (8)], the “Biotransformation pathway (Phase I metabolites of n-butylidenephthalide)” value in [9], in data set [10] and in [11] was “Tri-Demethylation” each time.

Take `C/C=C/C=C1\OC(=O)c2c1cccc2S(=O)(=O)O` [Compound (12)]: the “Biotransformation pathway (Phase II metabolites of n-butylidenephthalide)” value in [12] and in data set [13] was “Dehydrogenation +” each time.

With `C/C=C/C=C1\OC(=O)c2c(O[C@@H]3OC(CO)[C@@H](O)[C@H](O)C3O)cccc21` (stereo partly drawn) [Compound (14)], the “Biotransformation pathway (Phase II metabolites of n-butylidenephthalide)” value in [14] is reported as “Dehydrogenation +”.

`CCCC(CCC)C(=O)O` [VPA, valproic acid]: in data set [15], the “Telomerase activity of ADSCs” value was “could increase the telomerase activity”.

As for `CCCC=C1OC(=O)C2=C1CCC=C2` [ligustilide, 3-butylidene-4,5-dihydrophthalide], the “Longevity prolonged as compared to the control group” value in [3] (setting [16]) was “about 74.8±1.2 days”. The “Time after which the BBB scale of the hind limbs decreased rapidly” value in [5] is given as over 170 days.
